Read-outs that look alike come from different tables or passages of the source.
Experiments:
human IDO1 = target: T1, human IDO1 (Homo sapiens, UniProt P14902); assay: HEK293 cell-based indoleamine 2,3-dioxygenase (IDO) assay; settings: human IDO1/HEK293 cells, 20 hours
T1 construct: expressed in transfected cells
Method: Assessment of Inhibitor Activity in HEK293 Cell-Based Indoleamine 2,3-Dioxygenase (IDO) Assay
HEK293 cells were transfected with a pCDNA-based mammalian expression vector harboring human IDO1 cDNA (NM 002164.2) by electroporation. They were cultured in medium (DMEM with 10% FBS) containing 1 mg/ml G418 for two weeks. Clones of HEK293 cells that stably expressed human IDO1 protein were selected and expanded for IDO inhibition assay.
The human IDO1/HEK293 cells were seeded at 10,000 cells per 50 μL per well with RPMI/phenol red free media contains 10% FBS in a 384-well black wall clear bottom tissue culture plate (Matrix Technologies LLC) 100 nL of certain concentration of compound was then added to each well using ECHO liquid handling systems. The cells were incubated for 20 hours in 37° C. incubator with 5% CO2.
The compound treatments were stopped by adding trichloroacetic acid (Sigma-Aldrich) to a final concentration at 0.2%. The cell plate was further incubated at 50° C. for 30 minute. The equal volume supernatant (20 μL) and 0.2% (w/v) Ehrlich reagent (4-dimethylaminobenzaldehyde, Sigma-Aldrich) in glacial acetic acid were mixed in a new clear bottom 384-well plate. This plate was then incubated at room temperature for 30 minute. The absorbance at 490 nm was measured on Envision plate reader.
Compound IC50 values were calculated using the counts of 500 nM of a reference standard treatment as one hundred percent inhibition, and counts of no compound but DMSO treatment as zero percent inhibition.

[1] = target: T2, indoleamine 2,3-dioxygenase (IDO) (Homo sapiens, UniProt P14902); assay: HeLa cell-based indoleamine 2,3-dioxygenase (IDO) assay, kynurenine production; settings: HeLa cells, IFNγ 25 ng/mL, 48 hour incubation
T2 construct: replaced with media containing IFNγ (#285-IF/CF, R&D Systems) at a final concentration of 25 ng/mL; endogenous in cells; host or cells: HeLa (ATCC CCL-2), IFN-gamma stimulated

[2] = read-out: IDO1 HEK Human IC50 class (A < 50, B < 250, C < 2000)
[3] = read-out: IDO Hela IC50 class (A < 50, B < 250, C < 2000)

T2 sequence (P14902 whole entry): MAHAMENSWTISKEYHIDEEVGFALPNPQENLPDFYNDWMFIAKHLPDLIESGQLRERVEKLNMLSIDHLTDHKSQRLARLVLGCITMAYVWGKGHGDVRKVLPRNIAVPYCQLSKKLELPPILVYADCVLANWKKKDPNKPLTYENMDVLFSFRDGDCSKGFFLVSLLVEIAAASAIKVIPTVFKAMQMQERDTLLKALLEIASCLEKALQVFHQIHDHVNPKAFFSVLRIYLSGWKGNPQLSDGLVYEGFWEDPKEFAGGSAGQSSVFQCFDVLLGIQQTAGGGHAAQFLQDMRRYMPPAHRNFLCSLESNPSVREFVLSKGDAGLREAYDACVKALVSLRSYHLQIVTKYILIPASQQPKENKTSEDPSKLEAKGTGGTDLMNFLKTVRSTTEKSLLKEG
T1 sequence (P14902 whole entry): as above

Compound | IC50 (human IDO1; read-out: IDO1 HEK Human IC50) | IC50 (human IDO1; [2]) | IC50 [1, 3] | IC50 ([1]; read-out: IDO Hela IC50)
CCOC(C)(C)c1ccc([C@@H](CC)CC(=O)O)cc1NC(=O)Nc1ccc(C)cc1 (single isomer, unassigned) [Example 2] | 224 nM | 250 to 2000 nM | – | –
CCOC(C)(C)c1ccc(C(CC)CC(=O)O)cc1Nc1ccc2nc(C)sc2c1 (single isomer, unassigned) [Example 3] | – | 250 to 2000 nM | – | –
CCOC(C)(C)c1ccc([C@@H](CC)CC(=O)O)cc1Nc1ccc2nc(C)sc2c1 (single isomer, unassigned) [Example 4] | – | 250 to 2000 nM | – | –
CCOC(C)(C)c1ccc([C@@H](CC)CC(=O)O)cc1Nc1ccc(Cl)cc1 (single isomer, unassigned) [Example 5] | 95 nM | – | – | –
CCOc1ncc(Nc2cc([C@@H](CC)CC(=O)O)ccc2C(C)(C)OCC)cn1 (single isomer, unassigned) [Example 6] | – | 250 to 2000 nM | – | –
CCO[C@H](c1ccc([C@H](CC)CC(=O)O)cc1Nc1ccc(Cl)cc1)C(F)(F)F (single isomer, unassigned) [Example 11] | 1 nM | – | < 50 nM | –
CCO[C@@H](c1ccc(F)cc1)c1cc(Nc2ccc(Cl)cc2)cc([C@H](CC)CC(=O)O)c1 (single isomer, unassigned) [Example 112-1] | 2 nM | – | < 50 nM | –
CCO[C@@H](c1ccc(F)cc1)c1cc(Nc2ccc(Cl)cc2)cc([C@@H](CC)CC(=O)O)c1 (single isomer, unassigned) [Example 112-2] | 7 nM | – | – | 30 nM
CCO[C@H](c1ccc(F)cc1)c1cc(Nc2ccc(Cl)cc2)cc([C@H](CC)CC(=O)O)c1 (single isomer, unassigned) [Example 113-1] | 20 nM | – | – | 20 nM
CCO[C@H](c1ccc(F)cc1)c1cc(Nc2ccc(Cl)cc2)cc([C@@H](CC)CC(=O)O)c1 (single isomer, unassigned) [Example 113-2] | 131 nM | – | – | –
CCO[C@@H](c1ccc(F)cc1)c1cc(Nc2ccc3nc(C)sc3c2)cc([C@H](CC)CC(=O)O)c1 (single isomer, unassigned) [Example 114] | 23 nM | – | – | 20 nM
CCO[C@@H](c1ccc(F)cc1)c1cc(Nc2ccc3nc(C)sc3c2)cc([C@@H](CC)CC(=O)O)c1 (single isomer, unassigned) [Example 115] | 1200 nM | – | – | –
CCO[C@H](c1ccc(F)cc1)c1cc(Nc2ccc3nc(C)sc3c2)cc([C@H](CC)CC(=O)O)c1 (single isomer, unassigned) [Example 116] | 108 nM | – | – | –
CCO[C@H](c1ccc(F)cc1)c1cc(Nc2ccc3nc(C)sc3c2)cc([C@@H](CC)CC(=O)O)c1 (single isomer, unassigned) [Example 117] | – | 250 to 2000 nM | – | –
CCO[C@H](c1ccc([C@@H](CC)CC(=O)O)cc1Nc1ccc(Cl)cc1)C(F)(F)F (stereo in doubt) [Example 23, (S)-3-(3-((4-chlorophenyl)amino)-4-((R)-1-ethoxy-2,2,2-trifluoroethyl)phenyl)pentanoic acid] | 1 nM | – | – | –
CCO[C@@H](c1ccc([C@H](CC)CC(=O)O)cc1Nc1ccc(Cl)cc1)C(F)(F)F (stereo in doubt) [Example 34, (R)-3-(3-((4-chlorophenyl)amino)-4-((S)-1-ethoxy-2,2,2-trifluoroethyl)phenyl)pentanoic acid] | 1 nM | – | < 50 nM | –
Cc1ccc(NC(=O)Nc2cc(-c3ccccc3-c3nn[nH]n3)ccc2C(CC(C)C)CC(C)C)cc1 [Example 134, 1-(4-(2,6-dimethylheptan-4-yl)-2′-(2H-tetrazol-5-yl)-[1,1′-biphenyl]-3-yl)-3-(p-tolyl)urea] | 20 nM | – | – | –
CC(C)CC(CC(C)C)c1ccc(-c2ccccc2-c2nn[nH]n2)cc1NC(=O)Nc1ccc(Cl)cc1F [Example 135, 1-(4-Chloro-2-fluorophenyl)-3-(4-(2,6-dimethylheptan-4-yl)-2′-(2H-tetrazol-5-yl)-[1,1′-biphenyl]-3-yl)urea] | 10 nM | – | – | 10 nM
Cc1cc(NC(=O)Nc2cc(-c3ccccc3-c3nn[nH]n3)ccc2C(CC(C)C)CC(C)C)no1 [Example 136, 1-(4-(2,6-Dimethylheptan-4-yl)-2′-(2H-tetrazol-5-yl)-[1,1′-biphenyl]-3-yl)-3-(5-methylisoxazol-3-yl)urea] | 19 nM | – | – | –
CC[C@@H](CC(=O)O)c1ccc(C(CC(C)C)CC(C)C)c(NC(=O)Nc2ccc(C)cc2)c1 [Example 137, (S)-3-(4-(2,6-Dimethylheptan-4-yl)-3-(3-(p-tolyl)ureido)phenyl)pentanoic Acid] | 4 nM | – | < 50 nM | –
Cc1ccc(NC(=O)Nc2cc(OCC(=O)O)ccc2C(CC(C)C)CC(C)C)cc1 [Example 138, 2-(4-(2,6-Dimethylheptan-4-yl)-3-(3-(p-tolyl)ureido)phenoxy)acetic acid] | 464 nM | – | – | –

From US11253525B2, “Inhibitors of indoleamine 2,3-dioxygenase and methods of their use” (BRISTOL-MYERS SQUIBB COMPANY, priority 2018, dated 2022)
